According to PubChem BioAssay (NCI):
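Protocol summary: plate cells (96-well), add compound at 5 concentrations, incubate 48 h, interpolate endpoints linearly. GI50: concentration for 50% inhibition of growth. TGI: concentration producing complete growth inhibition.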

What was measured:
Test in all cases: inhibition of tumour cell growth, NCI panel, 48 h
[1] = system: ACHN renal
[2] = system: A498 renal
[3] = system: U251 CNS
[4] = system: HOP-62 NSCLC
[5] = system: CCRF-CEM leukemia
[6] = system: SNB-19 CNS
[7] = system: DU-145 prostate
[8] = system: PC-3 prostate
[9] = system: SK-OV-3 ovarian
[10] = system: SK-MEL-2 melanoma
[11] = system: K-562 leukemia
[12] = system: RPMI-8226 leukemia
[13] = system: BT-549 breast
[14] = system: SNB-75 CNS
[15] = system: SF-295 CNS
[16] = system: 786-0 renal
[17] = system: SR leukemia
[18] = system: HCT-116 colon
[19] = system: HS 578T breast
[20] = system: UACC-257 melanoma
[21] = system: COLO 205 colon
[22] = system: SN12C renal
[23] = system: OVCAR-4 ovarian
[24] = system: UO-31 renal
[25] = system: HT29 colon
[26] = system: A549 NSCLC
[27] = system: MDA-MB-231 breast
[28] = system: OVCAR-5 ovarian
[29] = system: MDA-MB-435
[30] = system: SK-MEL-28 melanoma
[31] = system: NCI-H460 lung
[32] = system: MOLT-4 leukemia
[33] = system: MCF7 breast
[34] = system: EKVX NSCLC
[35] = system: KM12 colon
[36] = system: M14 melanoma
[37] = system: SF-539 CNS
[38] = system: OVCAR-8 ovarian
[39] = system: HOP-92 NSCLC
[40] = system: SW-620 colon
[41] = system: RXF 393 renal
[42] = system: HCT-15 colon
[43] = system: IGROV1 ovarian
[44] = system: CAKI-1 renal
[45] = system: HL-60(TB) leukemia
[46] = system: UACC-62 melanoma
[47] = system: SF-268 CNS
[48] = system: NCI-H23 lung
[49] = system: MALME-3M melanoma
[50] = system: NCI/ADR-RES ovarian
[51] = system: HCC-2998 colon
[52] = system: NCI-H522 lung
[53] = system: TK-10 renal
[54] = system: LOX IMVI melanoma
[55] = system: SK-MEL-5 melanoma
[56] = system: NCI-H226 lung

NC(=O)c1c(NC(=O)c2cccc(C(F)(F)F)c2F)sc2c1CCC(=O)C2 was tested, and the GI50 [1] was 337 nM, the TGI [1] was > 100 µM and the GI50 [2] was > 100000 nM. The TGI [2] was > 100 µM, the GI50 [3] was 315 nM and the TGI [3] was > 100 µM. The GI50 [4] was 6.69 µM, the TGI [4] was > 100 µM and the GI50 [5] was 212 nM. For the same molecule, the TGI [5] was > 100 µM, the GI50 [6] was 577 nM and the TGI [6] was > 100 µM. For the same molecule, the GI50 [7] was > 100000 nM, the TGI [7] was > 100 µM and the GI50 [8] was 270 nM. For the same molecule, the TGI [8] was > 100 µM, the GI50 [9] was > 100000 nM and the TGI [9] was > 100 µM. For the same molecule, the GI50 [10] was > 100000 nM, the TGI [10] was > 100 µM and the GI50 [11] was 231 nM. The TGI [11] was > 100 µM, the GI50 [12] was 231 nM and the GI50 [13] was 327 nM. The TGI [13] was > 100000 nM, the GI50 [14] was 2160 nM and the TGI [14] was 39.1 µM. The GI50 [15] was 3090 nM, the TGI [15] was > 100 µM and the GI50 [16] was 2200 nM. The TGI [16] was > 100 µM, the GI50 [17] was 326 nM and the TGI [17] was > 100 µM. For the same molecule, the GI50 [18] was 306 nM, the TGI [18] was > 100 µM and the GI50 [19] was 831 nM. For the same molecule, the TGI [19] was > 100 µM.
CCCCCc1ccc(S(=O)(=O)Nc2cccc(-c3csc(NCCN4CCN(C)CC4)n3)c2)cc1 was tested, and the GI50 [20] was 1730 nM, the TGI [20] was 3.27 µM and the GI50 [21] was 1640 nM. For the same molecule, the TGI [21] was 3.16 µM, the GI50 [1] was 1750 nM and the TGI [1] was 3.24 µM. For the same molecule, the GI50 [22] was 2010 nM, the TGI [22] was 4.48 µM and the GI50 [2] was 1530 nM. For the same molecule, the TGI [2] was 3.12 µM, the GI50 [23] was 2020 nM and the TGI [23] was 5.18 µM. It also gave a GI50 [24] of 1420 nM, a TGI [24] of 2940 nM and a GI50 [3] of 1700 nM. It also gave a TGI [3] of 3.23 µM, a GI50 [25] of 1900 nM and a TGI [25] of 3.71 µM. It also gave a GI50 [26] of 1720 nM, a TGI [26] of 3.3 µM and a GI50 [4] of 1.73 µM. For the same molecule, the TGI [4] was 3.32 µM, the GI50 [27] was 1630 nM and the TGI [27] was 3.3 µM. It also gave a GI50 [5] of 2590 nM, a TGI [5] of 9.63 µM and a GI50 [28] of 1890 nM. For the same molecule, the TGI [28] was 4.01 µM, the GI50 [29] was 1700 nM and the TGI [29] was 3.3 µM. For the same molecule, the GI50 [6] was 1960 nM, the TGI [6] was 4.05 µM and the GI50 [7] was 1960 nM. It also gave a TGI [7] of 3.92 µM, a GI50 [30] of 1870 nM and a TGI [30] of 3.36 µM. For the same molecule, the GI50 [31] was 1780 nM, the TGI [31] was 3.29 µM and the GI50 [8] was 1860 nM. The TGI [8] was 4.42 µM, the GI50 [9] was 1750 nM and the TGI [9] was 3.35 µM. The GI50 [32] was 3.36 µM, the TGI [32] was 14.6 µM and the GI50 [33] was 1690 nM. It also gave a TGI [33] of 3.33 µM, a GI50 [10] of 1760 nM and a TGI [10] of 3.33 µM. It also gave a GI50 [34] of 1670 nM, a TGI [34] of 3.61 µM and a GI50 [35] of 1720 nM. The TGI [35] was 3.22 µM, the GI50 [36] was 1770 nM and the TGI [36] was 3.42 µM. It also gave a GI50 [37] of 1700 nM, a TGI [37] of 3.11 µM and a GI50 [11] of 3020 nM. For the same molecule, the TGI [11] was > 100 µM, the GI50 [38] was 1840 nM and the TGI [38] was 3.5 µM. For the same molecule, the GI50 [39] was 1280 nM, the TGI [39] was 2730 nM and the GI50 [40] was 1660 nM. For the same molecule, the TGI [40] was 3.12 µM, the GI50 [41] was 1410 nM and the TGI [41] was 2900 nM. It also gave a GI50 [13] of 1560 nM, a TGI [13] of 2970 nM and a GI50 [14] of 1390 nM. It also gave a TGI [14] of 2.89 µM, a GI50 [15] of 1860 nM and a TGI [15] of 3.54 µM. It also gave a GI50 [42] of 1680 nM, a TGI [42] of 3.31 µM and a GI50 [43] of 1630 nM. For the same molecule, the TGI [43] was 3.18 µM, the GI50 [44] was 1520 nM and the TGI [44] was 3.19 µM. The GI50 [45] was 2310 nM, the TGI [45] was 5.34 µM and the GI50 [16] was 1670 nM. The TGI [16] was 3.08 µM, the GI50 [46] was 1820 nM and the TGI [46] was 3.47 µM. The GI50 [47] was 1760 nM, the TGI [47] was 3.63 µM and the GI50 [17] was 2470 nM. The TGI [17] was > 100 µM, the GI50 [48] was 1810 nM and the TGI [48] was 3.62 µM. It also gave a GI50 [49] of 1540 nM, a TGI [49] of 2990 nM and a GI50 [50] of 1840 nM. It also gave a TGI [50] of 4.25 µM, a GI50 [51] of 1750 nM and a TGI [51] of 3.24 µM. For the same molecule, the GI50 [52] was 1800 nM, the TGI [52] was 3.43 µM and the GI50 [53] was 1800 nM. The TGI [53] was 3.61 µM, the GI50 [54] was 1690 nM and the TGI [54] was 3.13 µM. For the same molecule, the GI50 [55] was 1780 nM, the TGI [55] was 3.19 µM and the GI50 [56] was 1850 nM. It also gave a TGI [56] of 3.93 µM, a GI50 [19] of 1830 nM and a TGI [19] of 4.22 µM.
